Like-named read-outs stand apart in the source and are kept apart here.
Legend:
[1] = tested on: NCI-H929; test: Cytostatic activity on human multiple myeloma cell line NCI-H929 (WST-1); format: cell-based; details: for inhibition at 10 µM / inhibition at 1 µM: Homo sapiens, NCI-H929, 72 h; for inhibition at 10 µM: 10 μmol/L, read-out: cytostatic rate (%) H929 (10 μmol/L); for inhibition at 1 µM: read-out: cytostatic rate (%) H929 (1 μmol/L)
Description: (§1) The cytostatic rates of a test compound on human multiple myeloma cell lines NCI-H929 and KMS-11, were determined in the following manner.
(§2) For culturing NCI-H929, Roswell Park Memorial Institute's Medium (RPMI) 1640 (Gibco, Catalog No. 11875-093) containing 15% fetal bovine serum (Gibco, Catalog No. 10099-141), 1 mmol/L sodium pyruvate (Gibco, Catalog No. 11360-070), 10 mmol/L HEPES (Gibco, Catalog No. 15630-80), 4.5 g/L glucose (Sigma, Catalog No. G8769), 0.05 mmol/L 2-mercaptethanol (Nacalai Tesque, Catalog No. 21418-42) and penicillin/streptomycin (1:1) (Gibco, Catalog No. 15140-122) was used. For culturing KMS-11 cell, RPMI 1640 medium containing 10% fetal bovine serum and penicillin/streptomycin (1:1) was used. Each 80 μL of the NCI-H929 cell having a concentration of 1×10^5 cells/mL (or the KMS-11 cell having a concentration of 7.5×10^4 cells/mL) was inoculated to wells of a TC MICROWELL 96U plate (Nalge Nunc International, Catalog No. 163320) and was cultured in a 5% carbon dioxide gas incubator at 37° C. for 24 hours. Each 20 μL of a solution of the test compound in dimethyl sulfoxide (DMSO) which was prepared to make the final concentration to 1 μmol/L or 10 μmol/L, was added to each well. Each 20 μL of DMSO was added to the control well and the blank well to a final concentration of 0.1%. After adding the test compound, the cells were incubated in a 5% carbon dioxide gas incubator at 37° C. for 72 hours except for the blank well. After adding 20 μL of WST-1 reagent {4-[3-(4-iodophenyl)-2-(4-nitrophenyl)-2H-5-tetrazolio]-1,3-benzene disulfonate sodium salt} (Roche Diagnostics K.K., Catalog No. 1644807), which was diluted to 50% by RPMI medium to each well, the cells were further incubated at 37° C. for 2 hours. Then, the absorbances at 450 nm (reference wavelength: 690 nm) were measured with a microplate spectrophotometer SPECTRA max 340PC (Molecular Devices Corporation). The relative growth (%) of a well to which the test compound had been added and cultured for 72 hours was determined while setting the absorbance of a well to which not the test compound but DMSO alone had been added and cultured for 72 hours (control) as 100% and that of a well where the drugs are added (blank) as 0%. The cytostatic rate (%) of the test compound was determined by subtracting the calculated relative growth from 100.

[2] = tested on: KMS-11; test: Cytostatic activity on human multiple myeloma cell line KMS-11 (WST-1); format: cell-based; details: for inhibition at 10 µM / inhibition at 1 µM: Homo sapiens, KMS-11, 72 h; for inhibition at 10 µM: 10 μmol/L, read-out: cytostatic rate (%) KMS-11 (10 μmol/L); for inhibition at 1 µM: read-out: cytostatic rate (%) KMS-11 (1 μmol/L)
Description: as §1, §2

[3] = target: T1, IGF-1R (Homo sapiens, UniProt P08069); test: IGF-1R inhibitory activity (kinase reaction, time-resolved fluoroimmunoassay); format: biochemical; details: test compound 10 μmol/L
T1 construct: purchased Upstate Co. 14-465
Procedure, shortened: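 Compounds were tested at a single 10 μmol/L concentration. Each was incubated with recombinant IGF-1R (200 μg/L), 10 mmol/L ATP, MgCl2/MnCl2 and Na3VO4 (pH 7.5) on immobilized poly(Glu-Tyr) peptide for 30 min at 24° C. Eu-anti-phosphotyrosine time-resolved fluorescence (340/615 nm) gave relative activity against no-compound and no-enzyme wells, reported as % inhibition.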

[4] = IGF-1R active recombinant enzyme
[5] = NCI-H929 cells, test compound 1 μmol/L, WST-1
[6] = KMS-11 cells, test compound 1 μmol/L, WST-1

T1 sequence (P08069 959-1367 limits assumed): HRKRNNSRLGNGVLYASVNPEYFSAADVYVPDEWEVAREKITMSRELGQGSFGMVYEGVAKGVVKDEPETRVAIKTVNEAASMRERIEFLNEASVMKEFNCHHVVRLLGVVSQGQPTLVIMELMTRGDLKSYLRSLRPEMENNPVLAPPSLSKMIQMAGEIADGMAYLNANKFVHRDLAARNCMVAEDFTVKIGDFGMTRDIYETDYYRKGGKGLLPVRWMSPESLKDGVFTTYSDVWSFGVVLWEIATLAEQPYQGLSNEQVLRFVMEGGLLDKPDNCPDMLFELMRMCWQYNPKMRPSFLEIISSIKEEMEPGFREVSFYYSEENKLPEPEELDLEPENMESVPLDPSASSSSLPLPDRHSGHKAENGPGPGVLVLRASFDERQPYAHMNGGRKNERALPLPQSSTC

SMILES	inhibition at 10 µM [3, 4] [%]	inhibition at 10 µM ([1]; 72 hours) [%]	inhibition at 10 µM ([2]; 72 hours) [%]	also measured
N#Cc1ccccc1/C=C/c1n[nH]c2ccccc12 [Compound 136, (E)-2-[2-(1H-indazol-3-yl)vinyl]benzonitrile]	85.3	87.7	38.4	–
Cl.Cn1cccc1C(=O)Nc1cc(N2CCOCC2)ccc1/C=C/c1n[nH]c2ccccc12 [Compound 246, (E)-{2-[2-(1H-indazol-3-yl)vinyl]-5-(morpholin-4-yl)phenyl}-1-methyl-1H-pyrrole-2-carboxamide monohydrochloride]	–	–	–	cytostatic rate (%) H929 (1 μmol/L) ([1]; 1 μmol/L, 72 hours): 126.7%; cytostatic rate (%) KMS-11 (1 μmol/L) ([2]; 1 μmol/L, 72 hours): 128.9%; inhibitory activity (%) at 10 μmol/L [3, 4]: 100.2%
Cn1cccc1C(=O)Nc1cc(CN2CCNCC2)ccc1/C=C/c1n[nH]c2ccccc12 [Compound 332]	–	–	–	cytostatic rate (%) H929 (1 μmol/L) [1, 5]: 113.9%; cytostatic rate (%) KMS-11 (1 μmol/L) [2, 6]: 89.9%; inhibitory activity (%) at 10 μmol/L [3, 4]: 102.6%
Cc1ccsc1C(=O)Nc1cc(CN2CCNC[C@@H]2C)ccc1/C=C/c1n[nH]c2ccccc12 [Compound 336, (E)-(S)—N-{2-[2-(1H-indazol-3-yl)vinyl]-5-(2-methylpiperazin-1-ylmethyl)phenyl}-3-methylthiophene-2-carboxamide]	101	–	–	inhibition at 1 µM [1, 5]: 131%; inhibition at 1 µM [2, 6]: 115%
COc1cc(/C=C/c2n[nH]c3ccccc23)c(NC(=O)c2cccn2C)cc1OC [Compound 96, (E)-N-{2-[2-(1H-indazol-3-yl)vinyl]-4,5-dimethoxyphenyl}-1-methyl-1H-pyrrole-2-carboxamide]	–	117	117	inhibition at 10 µM [3]: 100%
COc1cc(/C=C/c2n[nH]c3ccccc23)c(NC(=O)c2sccc2C)cc1OCCCN1CCOCC1 [Compound 292, (E)-N-{2-[2-(1H-indazol-3-yl)vinyl]-4-methoxy-5-[3-(morpholin-4-yl)propyloxy]phenyl}-3-methylthiophene-2-carboxamide]	97.2	–	–	inhibition at 1 µM ([1]; 1 μmol/L, 72 hours): 113%; inhibition at 1 µM ([2]; 1 μmol/L, 72 hours): 122%
C(=C\c1n[nH]c2ccccc12)/c1ccccc1OCc1ccccc1 [Compound 13, (E)-3-[2-(2-benzyloxyphenyl)vinyl]-1H-indazole]	96.9	116	105	–
COCCN(C)C(=O)c1ccc(/C=C/c2n[nH]c3ccccc23)c(NC(=O)c2sccc2C)c1 [Compound 260, (E)-N-{2-[2-(1H-indazol-3-yl)vinyl]-5-[N-(2-methoxyethyl)-N-methylcarbamoyl]phenyl}-3-methylthiophene-2-carboxamide]	102	–	–	inhibition at 1 µM ([1]; 1 μmol/L, 72 hours): 119%; inhibition at 1 µM ([2]; 1 μmol/L, 72 hours): 118%
COc1c(OCCCN2CCNC(=O)C2)ccc(/C=C/c2n[nH]c3ccccc23)c1NC(=O)c1sccc1C [Compound 341, (E)-N-{6-[2-(1H-indazol-3-yl)vinyl]-2-methoxy-3-[3-(3-oxopiperazin-1-yl)propoxy]phenyl}-3-methylthiophene-2-carboxamide]	105	–	–	inhibition at 1 µM [1, 5]: 120%; inhibition at 1 µM [2, 6]: 124%
CCN(CC)CCCOc1cc(NC(=O)c2sccc2C)c(/C=C/c2n[nH]c3ccccc23)cc1OC [Compound 300, (E)-N-{5-[3-(diethylamino)propyloxy]-2-[2-(1H-indazol-3-yl)vinyl]-4-methoxyphenyl}-3-methylthiophene-2-carboxamide]	97.2	–	–	inhibition at 1 µM ([1]; 1 μmol/L, 72 hours): 119%; inhibition at 1 µM ([2]; 1 μmol/L, 72 hours): 116%
O=C1c2ccccc2C(=O)N1c1cc2c(cc1/C=C/c1n[nH]c3ccccc13)OCO2 [Compound 151, (E)-N-2-{6-[2-(1H-indazol-3-yl)vinyl]benzo[1,3]dioxol-5-yl}isoindole-1,3-dione]	100	104	83.2	–
COCCCN1CCN(Cc2ccc(/C=C/c3n[nH]c4ccccc34)c(NC(=O)c3sccc3C)c2)CC1 [Compound 304, (E)-N-{2-[2-(1H-indazol-3-yl)vinyl]-5-[4-(3-methoxypropyl)piperazin-1-ylmethyl]phenyl}-3-methylthiophene-2-carboxamide]	102	–	–	inhibition at 1 µM ([1]; 1 μmol/L, 72 hours): 115%; inhibition at 1 µM ([2]; 1 μmol/L, 72 hours): 105%
Cc1ccsc1C(=O)Nc1cc(OCCN2CCOCC2)ccc1/C=C/c1n[nH]c2ccccc12 [Compound 251, (E)-N-{2-[2-(1H-indazol-3-yl)vinyl]-5-[2-(morpholin-4-yl)ethoxy]phenyl}-3-methylthiophene-2-carboxamide]	102	–	–	inhibition at 1 µM ([1]; 1 μmol/L, 72 hours): 112%; inhibition at 1 µM ([2]; 1 μmol/L, 72 hours): 114%
CC(=O)NC1CCN(C(=O)c2ccc(/C=C/c3n[nH]c4ccccc34)c(NC(=O)c3sccc3C)c2)CC1 [Compound 301, (E)-N-{5-[4-(acetylamino)piperidin-1-ylcarbonyl]-2-[2-(1H-indazol-3-yl)vinyl]phenyl}-3-methylthiophene-2-carboxamide]	98.3	–	–	inhibition at 1 µM ([1]; 1 μmol/L, 72 hours): 119%; inhibition at 1 µM ([2]; 1 μmol/L, 72 hours): 100%

Now from value to compound, other results behind:

inhibition at 10 µM [3, 4] [%]	SMILES	inhibition at 10 µM ([1]; 72 hours) [%]	inhibition at 10 µM ([2]; 72 hours) [%]	also measured
101	O=C(Nc1ccccc1/C=C/c1n[nH]c2ccccc12)c1ccc(O)cc1 [Compound 77, (E)-4-hydroxy-N-{2-[2-(1H-indazol-3-yl)vinyl]phenyl}benzamide]	111	126	–
96.5	O=C(Nc1ccccc1/C=C/c1n[nH]c2ccccc12)c1cccs1 [Compound 14, (E)-N-{2-[2-(1H-indazol-3-yl)vinyl]phenyl}thiophene-2-carboxamide]	114	110	–
99.2	O=C(Nc1ccccc1/C=C/c1n[nH]c2ccccc12)c1ccc([N+](=O)[O-])o1 [Compound 63, (E)-N-{2-[2-(1H-indazol-3-yl)vinyl]phenyl}-5-nitrofuran-2-carboxamide]	109	125	–
93.4	O=C(Nc1nncs1)c1ccccc1/C=C/c1n[nH]c2ccccc12 [Compound 145, (E)-2-[2-(1H-indazol-3-yl)vinyl]-N-([1,3,4]thiadiazol-2-yl)benzamide]	126	116	–
99.4	Cc1nnsc1C(=O)Nc1ccccc1/C=C/c1n[nH]c2ccccc12 [Compound 71, (E)-N-{2-[2-(1H-indazol-3-yl)vinyl]phenyl}-4-methyl-[1,2,3]thiadiazole-5-carboxamide]	115	114	–
98.4	O=C(Nc1ccccc1/C=C/c1n[nH]c2ccccc12)N1CCOCC1 [Compound 35, (E)-N-{2-[2-(1H-indazol-3-yl)vinyl]phenyl}morpholine-4-carboxamide]	110	125	–
99.7	O=C(Nc1ccccc1/C=C/c1n[nH]c2ccccc12)c1ccsc1 [Compound 31, (E)-N-{2-[2-(1H-indazol-3-yl)vinyl]phenyl}thiophene-3-carboxamide]	114	117	–
95.4	O=C(Nc1ccccc1/C=C/c1n[nH]c2ccccc12)C1CCCCC1 [Compound 23, (E)-N-{2-[2-(1H-indazol-3-yl)vinyl]phenyl}cyclohexanecarboxamide]	130	109	–
98.5	COc1ccc(C(=O)Nc2ccccc2/C=C/c2n[nH]c3ccccc23)cc1 [Compound 4, (E)-N-{2-[2-(1H-indazol-3-yl)vinyl]phenyl}-4-methoxybenzamide]	114	130	–

Reference: patent US7605272B2, “IGF-1R inhibitor” (Kyowa Hakko Kirin Co., Ltd., priority 2005, dated 2009)
